{"source": "PubChem BioAssay AID256", "about": "(DTP/NCI, 2004)", "system": "CD2F1 mice, L1210 leukemia ip, survival T/C", "assay": "NCI In Vivo Anticancer Drug Screen. Data for tumor model L1210 Leukemia (intraperitoneal) in CD2F1 (CDF1) mice", "conditions": "higher = longer survival", "how_it_was_run": "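Tumor-bearing mice (transplanted tumor) were split into treated and vehicle control groups, and the measured endpoint of each treated group was divided by that of its vehicle controls.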", "key": {"[1]": {"conditions": "endpoint: mean survival time, dose: 100.0 mg/kg/injection, schedule: Q01DX009 (ip), vehicle: saline with Tween-80"}, "[2]": {"conditions": "endpoint: mean survival time, dose: 200.0 mg/kg/injection, schedule: Q01DX009 (ip), vehicle: saline with Tween-80"}, "[3]": {"conditions": "endpoint: mean survival time, dose: 400.0 mg/kg/injection, schedule: Q01DX009 (ip), vehicle: saline with Tween-80"}, "[4]": {"conditions": "endpoint: mean survival time, dose: 50.0 mg/kg/injection, schedule: Q04DX002 (ip), vehicle: saline with Tween-80"}, "[5]": {"conditions": "endpoint: mean survival time, dose: 100.0 mg/kg/injection, schedule: Q04DX002 (ip), vehicle: saline with Tween-80"}, "[6]": {"conditions": "endpoint: mean survival time, dose: 200.0 mg/kg/injection, schedule: Q04DX002 (ip), vehicle: saline with Tween-80"}, "[7]": {"conditions": "endpoint: mean survival time, dose: 400.0 mg/kg/injection, schedule: Q04DX002 (ip), vehicle: saline with Tween-80"}, "[8]": {"conditions": "endpoint: mean survival time, dose: 100.0 mg/kg/injection, schedule: Q04DX003 (ip), vehicle: saline with Tween-80"}, "[9]": {"conditions": "endpoint: mean survival time, dose: 200.0 mg/kg/injection, schedule: Q04DX003 (ip), vehicle: saline with Tween-80"}, "[10]": {"conditions": "endpoint: mean survival time, dose: 400.0 mg/kg/injection, schedule: Q04DX003 (ip), vehicle: saline with Tween-80"}}, "note": "Several values for one entry are separate records, joined by “and”; a condition that tells them apart may be missing. Equal values may be shown once. Inconclusive results and toxic doses are left out."}
{"smiles": "Nc1ccn(C2OC(CO)C3OP(=O)(O)OC32)c(=O)n1", "note": "(stereo not given)", "values": [{"measurement": "T/C", "setting": "endpoint: mean survival time, dose: 12.5 mg/kg/injection, schedule: Q01DX005 (ip), vehicle: water", "result": "96 % of control"}, {"measurement": "T/C", "setting": "endpoint: mean survival time, dose: 25.0 mg/kg/injection, schedule: Q01DX005 (ip), vehicle: water", "result": "99 % of control"}, {"measurement": "T/C", "setting": "endpoint: mean survival time, dose: 50.0 mg/kg/injection, schedule: Q01DX005 (ip), vehicle: water", "result": "99 % of control"}, {"measurement": "T/C", "setting": "endpoint: mean survival time, dose: 100.0 mg/kg/injection, schedule: Q01DX005 (ip), vehicle: water", "result": "94 % of control"}, {"measurement": "T/C", "setting": "endpoint: mean survival time, dose: 200.0 mg/kg/injection, schedule: Q01DX005 (ip), vehicle: water", "result": "96 % of control"}]}
{"smiles": "O=C(O)C(Br)C(Br)c1ccccc1", "note": "(stereo not given)", "values": [{"measurement": "T/C", "setting": "[1]", "result": "92 % of control"}, {"measurement": "T/C", "setting": "[2]", "result": "93 % of control"}, {"measurement": "T/C", "setting": "[3]", "result": "93 % of control"}]}
{"smiles": "CCC[CH2][Sn]1([CH2]CCC)[N](S(=O)(=O)c2ccc(C)cc2)c2ccccc2[N]1S(=O)(=O)c1ccc(C)cc1", "values": [{"measurement": "T/C", "setting": "endpoint: mean survival time, dose: 3.13 mg/kg/injection, schedule: Q04DX002 (ip), vehicle: saline with Tween-80", "result": "94 % of control"}, {"measurement": "T/C", "setting": "endpoint: mean survival time, dose: 6.25 mg/kg/injection, schedule: Q04DX002 (ip), vehicle: saline with Tween-80", "result": "102 % of control"}, {"measurement": "T/C", "setting": "endpoint: mean survival time, dose: 12.5 mg/kg/injection, schedule: Q04DX002 (ip), vehicle: saline with Tween-80", "result": "94 % of control"}]}
{"smiles": "O=C=Nc1ccc(Cl)c(Cl)c1", "note": "(tested in a mixture with another compound)", "values": [{"measurement": "T/C", "setting": "[4]", "result": "97 % of control"}, {"measurement": "T/C", "setting": "[5]", "result": "108 % of control"}, {"measurement": "T/C", "setting": "[6]", "result": "93 % of control"}, {"measurement": "T/C", "setting": "[7]", "result": "89 % of control"}]}
{"smiles": "Cc1cc(OC(=S)N(C)C)c(S(=O)(=O)F)cc1Cl", "values": [{"measurement": "T/C", "setting": "[5]", "result": "95 % of control"}, {"measurement": "T/C", "setting": "[6]", "result": "98 % of control"}, {"measurement": "T/C", "setting": "[7]", "result": "95 % of control"}]}
{"smiles": "Clc1ccc(Sc2ccc(Cl)cc2)cc1", "values": [{"measurement": "T/C", "setting": "endpoint: mean survival time, dose: 100.0 mg/kg/injection, schedule: Q01DX001 (ip), vehicle: saline with Tween-80", "result": "94 % of control"}, {"measurement": "T/C", "setting": "[1]", "result": "98 % of control"}, {"measurement": "T/C", "setting": "[8]", "result": "91 % of control"}, {"measurement": "T/C", "setting": "endpoint: mean survival time, dose: 200.0 mg/kg/injection, schedule: Q01DX001 (ip), vehicle: saline with Tween-80", "result": "108 % of control"}, {"measurement": "T/C", "setting": "[2]", "result": "102 % of control"}, {"measurement": "T/C", "setting": "[9]", "result": "91 % of control"}, {"measurement": "T/C", "setting": "endpoint: mean survival time, dose: 400.0 mg/kg/injection, schedule: Q01DX001 (ip), vehicle: saline with Tween-80", "result": "91 % of control"}, {"measurement": "T/C", "setting": "[3]", "result": "98 % of control"}]}
{"smiles": "O=C1c2ccccc2S(=O)(=O)c2cccc(S(=O)(=O)c3ccccc3)c21", "values": [{"measurement": "T/C", "setting": "[8]", "result": "98 % of control"}, {"measurement": "T/C", "setting": "[9]", "result": "95 % of control"}, {"measurement": "T/C", "setting": "[10]", "result": "90 % of control"}]}
{"smiles": "NC(CS/C=C\\C(=O)O)C(=O)O", "note": "(stereo not given)", "values": [{"measurement": "T/C", "setting": "[8]", "result": "101 % of control"}, {"measurement": "T/C", "setting": "[10]", "result": "93 % of control"}]}
{"smiles": "O=S(=O)(N=N/C=C1\\C=CC=CN1O)c1cccs1", "values": [{"measurement": "T/C", "setting": "endpoint: mean survival time, dose: 12.5 mg/kg/injection, schedule: Q01DX009 (ip), vehicle: saline with Tween-80", "result": "95 % of control"}, {"measurement": "T/C", "setting": "endpoint: mean survival time, dose: 25.0 mg/kg/injection, schedule: Q01DX009 (ip), vehicle: saline with Tween-80", "result": "101 % of control"}, {"measurement": "T/C", "setting": "endpoint: mean survival time, dose: 50.0 mg/kg/injection, schedule: Q01DX009 (ip), vehicle: saline with Tween-80", "result": "103 % of control"}, {"measurement": "T/C", "setting": "[1]", "result": "109 % of control"}, {"measurement": "T/C", "setting": "[2]", "result": "104 % of control"}]}
{"smiles": "Oc1ccccc1C=NCCC[N-]CCCN=Cc1ccccc1O.[Co]", "values": [{"measurement": "T/C", "setting": "endpoint: mean survival time, dose: 6.25 mg/kg/injection, schedule: Q01DX009 (ip), vehicle: saline", "result": "102 % of control and 103 % of control"}, {"measurement": "T/C", "setting": "endpoint: mean survival time, dose: 12.5 mg/kg/injection, schedule: Q01DX009 (ip), vehicle: saline", "result": "100 % of control and 103 % of control"}, {"measurement": "T/C", "setting": "endpoint: mean survival time, dose: 25.0 mg/kg/injection, schedule: Q01DX009 (ip), vehicle: saline", "result": "110 % of control and 111 % of control"}, {"measurement": "T/C", "setting": "endpoint: mean survival time, dose: 50.0 mg/kg/injection, schedule: Q01DX009 (ip), vehicle: saline", "result": "113 % of control and 100 % of control"}, {"measurement": "T/C", "setting": "endpoint: mean survival time, dose: 100.0 mg/kg/injection, schedule: Q01DX009 (ip), vehicle: saline", "result": "104 % of control"}]}
{"smiles": "CC(=O)Oc1cc2c(OC(C)=O)c(-c3c(C)cc4c(C(C)C)c(OC(C)=O)c(OC(C)=O)cc4c3OC(C)=O)c(C)cc2c(C(C)C)c1OC(C)=O", "values": [{"measurement": "T/C", "setting": "endpoint: mean survival time, dose: 25.0 mg/kg/injection, schedule: Q04DX002 (ip), vehicle: saline with Tween-80", "result": "100 % of control"}, {"measurement": "T/C", "setting": "[4]", "result": "96 % of control"}, {"measurement": "T/C", "setting": "[5]", "result": "89 % of control"}]}
{"smiles": "O=C(O)CC(=O)CC(=O)O.[NH-]C1CCCCC1[NH-].[Pt+2]", "values": [{"measurement": "T/C", "setting": "endpoint: median survival time, dose: 3.12 mg/kg/injection, schedule: Q04DX003 (ip), vehicle: saline", "result": "101 % of control and 108 % of control"}, {"measurement": "T/C", "setting": "endpoint: median survival time, dose: 6.25 mg/kg/injection, schedule: Q04DX003 (ip), vehicle: saline", "result": "114 % of control and 108 % of control"}, {"measurement": "T/C", "setting": "endpoint: median survival time, dose: 12.5 mg/kg/injection, schedule: Q04DX003 (ip), vehicle: saline", "result": "118 % of control and 112 % of control"}, {"measurement": "T/C", "setting": "endpoint: median survival time, dose: 25.0 mg/kg/injection, schedule: Q04DX003 (ip), vehicle: saline", "result": "122 % of control"}, {"measurement": "T/C", "setting": "endpoint: median survival time, dose: 100.0 mg/kg/injection, schedule: Q04DX003 (ip), vehicle: saline", "result": "162 % of control and 294 % of control"}, {"measurement": "T/C", "setting": "endpoint: median survival time, dose: 200.0 mg/kg/injection, schedule: Q04DX003 (ip), vehicle: saline", "result": "241 % of control"}]}
